This note sets out measurements from US20240360148A1 (SUVALENT THERAPEUTICS, INC., priority 2021, published 2024).

Assay [1] deals with SAE1 (Homo sapiens (Human), UniProt Q9UBE0+Q9UBT2). Kind of assay: SAE High Throughput Biochemical Assay (HTRF), 15 min preincubation. The following applies: read-out: 15 min preincubation HTRF IC50 (μM) Ave, SAE1 12.5 nM, ATP 100 μM. The procedure, abridged: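 HTRF detection of SUMO transfer from SUMO-GST to UBC9-His (40 nM each) by SAE1 at 12.5 nM used 100 μM ATP in pH 7.5 HEPES buffer with 10 mM MgCl2 and 0.1% BSA. Enzyme and compound were preincubated 15 min at RT and the reaction ran 45 min, with readings after 2 h and overnight.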

Assay [2] relates to sumoylation levels (SUMO 2/3 conjugates) in HCT-116 cells. The assay can be described thus: HCT-116 4 Hour Cell Assay (Western, SUMO 2/3 conjugates). Conditions: Homo sapiens, HCT-116, 4 h, 4 h treatment, Anti-Sumo 2-3 immunoblot, read-out: HCT-116 Western 4 h IC50 (μM) Ave. Format: cell-based. The protocol:
This protocol describes the procedures used to assess the effects of compounds of interest on sumoylation levels. Immunoblot of SUMO 2/3 conjugates are performed and IC50 curves are generated upon quantification of sumoylations bands. HCT-116 cells are seeded in a 12 well plate (500,000 cells/well). The following day the cells are treated with compounds of interest (resuspended in DMSO) for 4 hours (11 concentrations with a three-fold dilution; starting concentration 25 μM) Following 4 hours of incubation the cells are washed with ice cold PBS 1×and protein extraction is performed with RIPA buffer supplemented with phosphatases and proteases inhibitors, 25 mM of NEM and 50 units/mL of Benzonase. Samples undergo centrifugation at 13,000 RPM, 4° C., for 10 minutes and the supernatant is collected. Protein quantification is performed using BCA. Non-Reducing Laemmli Buffer is added to the samples. Samples are heated at 75° C. for 10 minutes, and are centrifuged for 3 minutes at 9000 RPM Nupage 4-12% Bis Tris gels and 1× MOPS buffer (Fisher Scientific)+1× NuPAGE Antioxidant (Invitrogen) are used to perform the SDS-PAGE gel electrophoresis (20 to 40 μg of proteins are loaded in the gels). Proteins are then transferred to PVDF membranes and the level of total proteins are measured by staining with Revert Total Protein Stain and the fluorescent bands are acquired using the LI-COR FC (700 nm for 1 min) Membranes are blocked for 5 minutes with Bio-Rad Blocking Buffer and are subsequently incubated over night at 4° C. with Anti-Sumo 2-3 mAb (M BL #M114-3, 1:1000 in Bio-Rad Blocking Buffer, 0.2% Tween 20) Membranes are washed with 1×TBS-T (3 times for 5 minutes) and sumoylation is detected using Li-cor IRDye 800CW Goat anti-Mouse IgG secondary antibody (1:10,000 dilution) upon 1 hour of incubation in blocking buffer with 0.2% Tween 20 and 0.01% SDS. After the incubation, the membranes are washed with 1×TBS-T (3 times for 5 minutes). To visualize the fluorescent bands the membranes are scanned with LI-COR FC (700 nm for 1 min and […] for 2 mins). Sumoylation levels are quantified upon normalization with total protein levels, using the LI-COR Image Studio Lite 5.2 Software.

In general, IC50 refers to the concentration that inhibits the measured activity by half.

Chain of SAE1 (Q9UBE0 whole entry): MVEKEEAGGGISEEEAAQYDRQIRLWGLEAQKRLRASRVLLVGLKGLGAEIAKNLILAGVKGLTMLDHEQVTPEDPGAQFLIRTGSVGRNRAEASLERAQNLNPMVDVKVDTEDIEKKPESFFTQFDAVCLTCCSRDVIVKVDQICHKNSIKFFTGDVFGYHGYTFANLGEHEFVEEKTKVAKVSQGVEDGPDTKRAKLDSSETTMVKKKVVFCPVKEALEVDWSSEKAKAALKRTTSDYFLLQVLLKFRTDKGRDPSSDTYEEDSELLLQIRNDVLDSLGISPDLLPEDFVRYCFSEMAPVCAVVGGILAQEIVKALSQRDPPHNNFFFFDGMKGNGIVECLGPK
Chain of SAE1 (Q9UBT2 whole entry): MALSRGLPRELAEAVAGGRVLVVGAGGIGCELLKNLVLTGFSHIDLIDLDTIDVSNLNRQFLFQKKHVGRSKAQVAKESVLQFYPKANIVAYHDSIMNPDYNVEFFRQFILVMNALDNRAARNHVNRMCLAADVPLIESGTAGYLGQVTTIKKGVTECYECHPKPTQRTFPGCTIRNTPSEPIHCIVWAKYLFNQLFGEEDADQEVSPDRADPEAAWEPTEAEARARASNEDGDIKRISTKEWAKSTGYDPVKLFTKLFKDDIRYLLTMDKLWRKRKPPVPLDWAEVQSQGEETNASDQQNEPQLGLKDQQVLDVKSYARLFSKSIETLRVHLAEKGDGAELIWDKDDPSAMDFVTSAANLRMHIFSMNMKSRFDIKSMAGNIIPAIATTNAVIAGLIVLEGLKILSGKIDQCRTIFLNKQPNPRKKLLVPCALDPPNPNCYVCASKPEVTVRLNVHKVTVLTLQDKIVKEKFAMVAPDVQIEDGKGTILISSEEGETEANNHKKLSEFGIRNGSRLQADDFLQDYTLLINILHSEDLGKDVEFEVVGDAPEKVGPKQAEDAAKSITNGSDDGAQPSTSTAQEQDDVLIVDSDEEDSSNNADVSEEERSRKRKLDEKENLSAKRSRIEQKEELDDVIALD

As for `Cc1c(C#N)sc2c1[C@H](c1cccc(F)c1-c1c[nH]nc1C(F)(F)F)CN(C(=O)/C=C/CN(C)C)C2` [Compound 221], the IC50 in assay [1] turned out to be 0.347 µM; in assay [2], 0.134 µM.
The corresponding values for `CCn1cc(-c2ccccc2[C@@H]2CN(C(=O)C#CC3CCCN3)Cc3sc(C#N)cc32)c(C(F)(F)F)n1` (stereo partly drawn) [Example 139, (4S)-4-(2-(1-Ethyl-3-(trifluoromethyl)-1 H pyrazol-4-yl)phenyl)-6-(3-(pyrrolidin-2-yl)propioloyl)-4,5,6,7-tetrahydrothieno[2,3-c]pyridine-2-carbonitrile] are 0.07 µM and 0.97 µM.
As to `CCn1cc(-c2ccccc2[C@@H]2CN(C(=O)/C=C/[C@@H]3CCCCN3)Cc3sc(C#N)cc32)c(C(F)(F)F)n1` [Example 115, (S)-4-(2-(1-Ethyl-3-(trifluoromethyl)-1H pyrazol-4-yl)phenyl)-6-((E)-3-((S)-piperidin-2-yl)acryloyl)-4,5,6,7-tetrahydrothieno[2,3-c]pyridine-2-carbonitrile], the 50% inhibitory concentration (IC50) in assay [1] was determined as 1.95 µM; in assay [2], 0.6 µM.
In the same order, the values of `CCn1cc(-c2c(C)cccc2C2CN(C(=O)/C=C/CN(C)C)Cc3sc(C#N)cc32)c(C(F)(F)F)n1` (centres unmarked) [Example 200, (E)-6-(4-(Dimethylamino)but-2-enoyl)-4-(2-(1-ethyl-3-(trifluoromethyl)-1 H-pyrazol-4-yl)-3-methylphenyl)-4,5,6,7-tetrahydrothieno[2,3-c]pyridine-2-carbonitrile] are 2.28 µM and 0.891 µM.
In the same order, the values of `CCn1cc(-c2c(F)cccc2[C@@H]2CN(C(=O)/C=C/[C@@H]3CCN3)Cc3sc(C#N)cc32)c(C(F)(F)F)n1` [Example 53, (S)-6-((E)-3-((S)-azetidin-2-yl)acryloyl)-4-((S)-2-(1-ethyl-3-(trifluoromethyl)-1 H-pyrazol-4-yl)-3-fluorophenyl)-4,5,6,7-tetrahydrothieno[2,3-c]pyridine-2-carbonitrile] are 0.34 µM and 0.191 µM.
As to `CCn1cc(-c2c(F)cccc2[C@@H]2CN(C(=O)/C=C/[C@@H]3C[C@@H](F)CN3)Cc3sc(C#N)cc32)c(C(F)(F)F)n1` [Example 121, (S)-4-(2-(1-Ethyl-3-(trifluoromethyl)-1H pyrazol-4-yl)-3-fluorophenyl)-6-((E)-3-((2S,4R)-4-fluoropyrrolidin-2-yl)acryloyl)-4,5,6,7-tetrahydrothieno[2,3-c]pyridine-2-carbonitrile], the half-maximal inhibitory concentration (IC50) in assay [1] was determined as 0.43 µM; in assay [2], 0.577 µM.
In the same order, the values of `CCn1cc(-c2ccccc2[C@@H]2CN(C(=O)/C=C/CF)Cc3sc(C#N)cc32)c(C(F)(F)F)n1` [Example 20, (S, E)-4-(2-(1-ethyl-3-(trifluoromethyl)-1 H-pyrazol-4-yl)phenyl)-6-(4-fluorobut-2-enoyl)-4,5,6,7-tetrahydrothieno[2,3-c]pyridine-2-carbonitrile] are 0.69 µM and 0.692 µM.
The corresponding values for `CCn1cc(-c2c(Cl)cccc2[C@@H]2CN(C(=O)/C=C/CN(C)C)Cc3sc(C#N)cc32)c(C(F)(F)F)n1` [Compound 243] are 1.17 µM and 0.502 µM.
In the same order, the values of `CCn1cc(-c2ccccc2[C@@H]2CN(C(=O)C#CC3CNC3)Cc3sc(C#N)cc32)c(C(F)(F)F)n1` [Example 147, (S)-6-(3-(Azetidin-3-yl)propioloyl)-4-(2-(1-ethyl-3-(trifluoromethyl)-1 H pyrazol-4-yl)phenyl)-4,5,6,7-tetrahydrothieno[2,3-c]pyridine-2-carbonitrile] are 0.62 µM and 3.47 µM.
Take `CCn1cc(-c2ccccc2[C@@H]2CN(C(=O)/C=C/C(F)F)Cc3sc(C#N)cc32)c(C(F)(F)F)n1` [Example 21, (S, E)-6-(4,4-difluorobut-2-enoyl)-4-(2-(1-ethyl-3-(trifluoromethyl)-1H-pyrazol-4-yl)phenyl)-4,5,6,7-tetrahydrothieno[2,3-c]pyridine-2-carbonitrile]: in assay [2], the IC50 was found to be 0.12 µM.
As for `CCn1cc(-c2ccccc2[C@@H]2CN(C(=O)/C=C/C(C)(C)N)Cc3sc(C#N)cc32)c(C(F)(F)F)n1` [Example 37, (S, E)-6-(4-amino-4-methylpent-2-enoyl)-4-(2-(1-ethyl-3-(trifluoromethyl)-1 H-pyrazol-4-yl)phenyl)-4,5,6,7-tetrahydrothieno[2,3-c]pyridine-2-carbonitrile], the IC50 in assay [1] is over 25 µM.
As to `CCn1cc(-c2ccc(O)cc2C2CN(C(=O)/C=C/CN(C)C)Cc3sc(C#N)cc32)c(C(F)(F)F)n1` (centres unmarked) [Example 205, (E)-6-(4-(Dimethylamino)but-2-enoyl)-4-(2-(1-ethyl-3-(trifluoromethyl)-1 H-pyrazol-4-yl)-5-hydroxyphenyl)-4,5,6,7-tetrahydrothieno[2,3-c]pyridine-2-carbonitrile], in assay [1], the IC50 is over 25 µM.
Same read-out and setting: the result for `CCn1cc(-c2nc(N)ccc2C2CN(C(=O)/C=C/CN(C)C)Cc3sc(C#N)cc32)c(C(F)(F)F)n1` (centres unmarked) [Example 192, (E)-4-(6-Amino-2-(1-ethyl-3-(trifluoromethyl)-1 H-pyrazol-4-yl)pyridin-3-yl)-6-(4-(dimethylamino)but-2-enoyl)-4,5,6,7-tetrahydrothieno[2,3-c]pyridine-2-carbonitrile] reads over 25 µM.
Consider `CCn1cc(-c2ccccc2[C@@H]2CN(C(=O)/C=C/CNC3(C)COC3)Cc3sc(C#N)cc32)c(C(F)(F)F)n1` [Example 95, (S, E)-4-(2-(1-Ethyl-3-(trifluoromethyl)-1 H-pyrazol-4-yl)phenyl)-6-(4-((3-methyloxetan-3-yl)amino)but-2-enoyl)-4,5,6,7-tetrahydrothieno[2,3-c]pyridine-2-carbonitrile], for which the IC50 in assay [1] came to 15.6 µM.
As for `CCn1cc(-c2ccccc2[C@@H]2CN(C(=O)/C=C/CN(C)C)Cc3sc(C#N)cc32)c(C(C)(F)F)n1` [Example 10, (S, E)-4-(2-(3-(1,1-difluoroethyl)-1-ethyl-1H-pyrazol-4-yl)phenyl)-6-(4-(dimethylamino)but-2-enoyl)-4,5,6,7-tetrahydrothieno[2,3-c]pyridine-2-carbonitrile], in assay [1], the half-maximal inhibitory concentration (IC50) was 13.4 µM.
On the same count and under the same terms, the result for `CN(C)C/C=C/C(=O)N1Cc2sc(C#N)cc2[C@H](c2ccccc2-c2cn(S(C)(=O)=O)nc2C(F)(F)F)C1` [Example 168, (S, E)-6-(4-(Dimethylamino)but-2-enoyl)-4-(2-(1-(methylsulfonyl)-3-(trifluoromethyl)-1 H pyrazol-4-yl)phenyl)-4,5,6,7-tetrahydrothieno[2,3-c]pyridine-2-carbonitrile] reads 18.8 µM.
Still for that read-out and setting: under `CNC(=O)C(C)n1cc(-c2ccccc2[C@@H]2CN(C(=O)/C=C/CN(C)C)Cc3sc(C#N)cc32)c(C(F)(F)F)n1` (stereo partly drawn) [Example 161, 2-(4-(2-((S)-2-Cyano-6-((E)-4-(dimethylamino)but-2-enoyl)-4,5,6,7-tetrahydrothieno[2,3-c]pyridin-4-yl)phenyl)-3-(trifluoromethyl)-1 H-pyrazol-1-yl)-N-methylpropanamide] stands 15.8 µM; under `CC(C(=O)N(C)C)n1cc(-c2ccccc2[C@@H]2CN(C(=O)/C=C/CN(C)C)Cc3sc(C#N)cc32)c(C(F)(F)F)n1` (stereo partly drawn) [Example 163, 2-(4-(2-((S)-2-Cyano-6-((E)-4-(dimethylamino)but-2-enoyl)-4,5,6,7-tetrahydrothieno[2,3-c]pyridin-4-yl)phenyl)-3-(trifluoromethyl)-1 H-pyrazol-1-yl)-N, N-dimethylpropanamide], 8.68 µM; under `CCn1cc(-c2ccccc2[C@@H]2CN(C(=O)/C=C/[C@H]3CCC(C)(C)N3)Cc3sc(C#N)cc32)c(C(F)(F)F)n1` [Example 78, (S)-6-((E)-3-((R)-5,5-Dimethylpyrrolidin-2-yl)acryloyl)-4-(2-(1-ethyl-3-(trifluoromethyl)-1H pyrazol-4-yl)phenyl)-4,5,6,7-tetrahydrothieno[2,3-c]pyridine-2-carbonitrile], 6 µM.
In the case of `CN(C)C/C=C/C(=O)N1Cc2sc(C#N)cc2C(c2ccccc2-c2c[nH]nc2C(F)(F)F)C1` (centres unmarked) [Example 152, (E)-6-(4-(Dimethylamino)but-2-enoyl)-4-(2-(3-(trifluoromethyl)-1H-pyrazol-4-yl)phenyl)-4,5,6,7-tetrahydrothieno[2,3-c]pyridine-2-carbonitrile], in assay [1], the IC50 is 10.4 µM.
